Laboratory results published in PubChem BioAssay AID2060905 (Molecular Pharmacology Branch, DTP, NCI, 2025).
Where “and” joins values, the source holds several entries; their conditions need not be identical. Identical values can stand only once.

Tested on: 282377-053-R-J1-PDC complex spheroid viability
Assay: Anticancer human tumor 282377-053-R-J1-PDC patient-derived colon adenocarcinoma cell line growth inhibition [RAS]
Conditions: for viability, T/C: stronger effect = lower value; active means viability on the fitted dose curve at most 10% of control; inactive means the rest
Summary of the method: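 Tumour cells grown as complex spheroids with HUVEC endothelial cells and mesenchymal stem cells, treated with RAS pathway inhibitor combinations. Each agent spans half-log steps from near clinical Cmax, or 10 microM where Cmax is unknown.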

[1] = curve of first compound, second compound 0.0316 µM
[2] = curve of first compound, second compound 0.1 µM
[3] = curve of first compound, second compound 0.316 µM
[4] = curve of first compound, second compound 1 µM
[5] = second compound 0.0316 µM, first compound 0.0316 µM
[6] = second compound 0.0316 µM, first compound 0.1 µM
[7] = second compound 0.0316 µM, first compound 0.316 µM
[8] = second compound 0.0316 µM, first compound 1 µM
[9] = second compound 0.0316 µM, first compound 3.16 µM
[10] = second compound 0.0316 µM, first compound 10 µM
[11] = second compound 0.1 µM, first compound 0.0316 µM
[12] = second compound 0.1 µM, first compound 0.1 µM
[13] = second compound 0.1 µM, first compound 0.316 µM
[14] = second compound 0.1 µM, first compound 1 µM
[15] = second compound 0.1 µM, first compound 3.16 µM
[16] = second compound 0.1 µM, first compound 10 µM
[17] = second compound 0.316 µM, first compound 0.0316 µM
[18] = second compound 0.316 µM, first compound 0.1 µM
[19] = second compound 0.316 µM, first compound 0.316 µM
[20] = second compound 0.316 µM, first compound 1 µM
[21] = second compound 0.316 µM, first compound 3.16 µM
[22] = second compound 0.316 µM, first compound 10 µM
[23] = second compound 1 µM, first compound 0.0316 µM
[24] = second compound 1 µM, first compound 0.1 µM
[25] = second compound 1 µM, first compound 0.316 µM
[26] = second compound 1 µM, first compound 1 µM
[27] = second compound 1 µM, first compound 3.16 µM
[28] = second compound 1 µM, first compound 10 µM
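Further: spheroids exposed to agents for seven days before readout.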
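Wherever viability, T/C is given: luminescence viability as percent of DMSO vehicle control wells.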

Nc1ccn(C2OC(CO)C(O)C2(F)F)c(=O)n1 (stereo unspecified) + CCn1c(-c2cccnc2C(C)OC)c2c3cc(ccc31)N1CCOC(CC(NC(=O)C(C(C)C)N(C)C(=O)C3(F)CCN(C(=O)C#CC(C)(C)N(C)C)CC3)C(=O)N3CCCC(N3)C(=O)OCC(C)(C)C2)C1
inactive: viability, T/C (second compound 0.000949 µM, first compound 0.00316 µM) 99.3% | viability, T/C (second compound 0.000949 µM, first compound 0.01 µM) 105% | viability, T/C (second compound 0.000949 µM, first compound 0.0316 µM) 76% | viability, T/C (second compound 0.000949 µM, first compound 0.1 µM) 92.6% | viability, T/C (second compound 0.000949 µM, first compound 0.316 µM) 67.2% | viability, T/C (second compound 0.000949 µM, first compound 1 µM) 57.9% | viability, T/C (second compound 0.003 µM, first compound 0.00316 µM) 100% | viability, T/C (second compound 0.003 µM, first compound 0.01 µM) 97.9% | viability, T/C (second compound 0.003 µM, first compound 0.0316 µM) 99.2% | viability, T/C (second compound 0.003 µM, first compound 0.1 µM) 109% | viability, T/C (second compound 0.003 µM, first compound 0.316 µM) 81.1% | viability, T/C (second compound 0.003 µM, first compound 1 µM) 59% | viability, T/C (second compound 0.00949 µM, first compound 0.00316 µM) 106% | viability, T/C (second compound 0.00949 µM, first compound 0.01 µM) 97.9% | viability, T/C (second compound 0.00949 µM, first compound 0.0316 µM) 99.3% | viability, T/C (second compound 0.00949 µM, first compound 0.1 µM) 96.8% | viability, T/C (second compound 0.00949 µM, first compound 0.316 µM) 87.2% | viability, T/C (second compound 0.00949 µM, first compound 1 µM) 66.1% | viability, T/C (second compound 0.03 µM, first compound 0.00316 µM) 104% | viability, T/C (second compound 0.03 µM, first compound 0.01 µM) 87.7% | viability, T/C (second compound 0.03 µM, first compound 0.0316 µM) 112% | viability, T/C (second compound 0.03 µM, first compound 0.1 µM) 104% | viability, T/C (second compound 0.03 µM, first compound 0.316 µM) 103% | viability, T/C (second compound 0.03 µM, first compound 1 µM) 74.1% | viability, T/C (second compound 0.0949 µM, first compound 0.00316 µM) 87% | viability, T/C (second compound 0.0949 µM, first compound 0.01 µM) 98.8% | viability, T/C (second compound 0.0949 µM, first compound 0.0316 µM) 92.1% | viability, T/C (second compound 0.0949 µM, first compound 0.1 µM) 74.3% | viability, T/C (second compound 0.0949 µM, first compound 0.316 µM) 91.1% | viability, T/C (second compound 0.0949 µM, first compound 1 µM) 68.5% | viability, T/C (second compound 0.3 µM, first compound 0.00316 µM) 111% | viability, T/C (second compound 0.3 µM, first compound 0.01 µM) 99.9% | viability, T/C (second compound 0.3 µM, first compound 0.0316 µM) 92.8% | viability, T/C (second compound 0.3 µM, first compound 0.1 µM) 116% | viability, T/C (second compound 0.3 µM, first compound 0.316 µM) 90.9% | viability, T/C (second compound 0.3 µM, first compound 1 µM) 52.9%
> 1 µM: IC50 (curve of first compound, second compound 0.000949 µM) | IC50 (curve of first compound, second compound 0.003 µM) | IC50 (curve of first compound, second compound 0.00949 µM) | IC50 (curve of first compound, second compound 0.03 µM) | IC50 (curve of first compound, second compound 0.0949 µM) | IC50 (curve of first compound, second compound 0.3 µM)

NC1c2ccccc2OC12CCN(c1cnc3c(N4CCCc5ncccc54)n[nH]c3n1)CC2 (stereo unspecified) + C#Cc1c(F)ccc2cc(O)cc(-c3ncc4c(N5CC6CCC(C5)N6)nc(OCC56CCCN5CC(F)C6)nc4c3F)c12
inactive: viability, T/C [5] 92.2% | viability, T/C [6] 91.7% | viability, T/C [7] 111% | viability, T/C [8] 104% | viability, T/C [9] 88.3% | viability, T/C [10] 67.5% | viability, T/C [11] 90.7% | viability, T/C [12] 85.5% | viability, T/C [13] 99.2% | viability, T/C [14] 71.9% | viability, T/C [15] 110% | viability, T/C [16] 73% | viability, T/C [17] 105% | viability, T/C [18] 87.4% | viability, T/C [19] 78.4% | viability, T/C [20] 95.6% | viability, T/C [21] 94.8% | viability, T/C [22] 78.7% | viability, T/C [23] 83% | viability, T/C [24] 88.1% | viability, T/C [25] 106% | viability, T/C [26] 92.5% | viability, T/C [27] 85.1% | viability, T/C [28] 83% | viability, T/C (second compound 3.16 µM, first compound 0.0316 µM) 90.4% | viability, T/C (second compound 3.16 µM, first compound 0.1 µM) 96% | viability, T/C (second compound 3.16 µM, first compound 0.316 µM) 99.6% | viability, T/C (second compound 3.16 µM, first compound 1 µM) 86.5% | viability, T/C (second compound 3.16 µM, first compound 3.16 µM) 90.4% | viability, T/C (second compound 3.16 µM, first compound 10 µM) 77.1% | viability, T/C (second compound 10 µM, first compound 0.0316 µM) 115% | viability, T/C (second compound 10 µM, first compound 0.1 µM) 105% | viability, T/C (second compound 10 µM, first compound 0.316 µM) 108% | viability, T/C (second compound 10 µM, first compound 1 µM) 84.7% | viability, T/C (second compound 10 µM, first compound 3.16 µM) 109% | viability, T/C (second compound 10 µM, first compound 10 µM) 81.6%
> 10 µM: IC50 [1] | IC50 [2] | IC50 [3] | IC50 [4] | IC50 (curve of first compound, second compound 3.16 µM) | IC50 (curve of first compound, second compound 10 µM)

CC(C)NCC(C(=O)N1CCN(c2ncnc3c2C(C)CC3O)CC1)c1ccc(Cl)cc1 (stereo unspecified) + C=CC(=O)N1CCN(c2nc(OCC3CCCN3C)nc3c(F)c(-c4nc(N)cc(C)c4C(F)(F)F)c(Cl)cc23)C(C)C1
inactive: viability, T/C (second compound 0.00316 µM, first compound 0.0316 µM) 104% | viability, T/C (second compound 0.00316 µM, first compound 0.1 µM) 108% | viability, T/C (second compound 0.00316 µM, first compound 0.316 µM) 96.2% | viability, T/C (second compound 0.00316 µM, first compound 1 µM) 94.1% | viability, T/C (second compound 0.00316 µM, first compound 3.16 µM) 88.8% | viability, T/C (second compound 0.00316 µM, first compound 10 µM) 84.7% | viability, T/C (second compound 0.01 µM, first compound 0.0316 µM) 99.3% | viability, T/C (second compound 0.01 µM, first compound 0.1 µM) 107% | viability, T/C (second compound 0.01 µM, first compound 0.316 µM) 83.2% | viability, T/C (second compound 0.01 µM, first compound 1 µM) 110% | viability, T/C (second compound 0.01 µM, first compound 3.16 µM) 89.5% | viability, T/C (second compound 0.01 µM, first compound 10 µM) 75.6% | viability, T/C [5] 98.2% | viability, T/C [6] 99.3% | viability, T/C [7] 89.3% | viability, T/C [8] 97.3% | viability, T/C [9] 91.8% | viability, T/C [10] 85.4% | viability, T/C [11] 97.9% | viability, T/C [12] 105% | viability, T/C [13] 98.7% | viability, T/C [14] 95.8% | viability, T/C [15] 82.7% | viability, T/C [16] 79.8% | viability, T/C [17] 101% | viability, T/C [18] 96.7% | viability, T/C [19] 96.2% | viability, T/C [20] 98% | viability, T/C [21] 101% | viability, T/C [22] 84.8% | viability, T/C [23] 100% | viability, T/C [24] 88.5% | viability, T/C [25] 118% | viability, T/C [26] 78.9% | viability, T/C [27] 68.7% | viability, T/C [28] 76%
> 10 µM: IC50 (curve of first compound, second compound 0.00316 µM) | IC50 (curve of first compound, second compound 0.01 µM) | IC50 [1] | IC50 [2] | IC50 [3] | IC50 [4]

CCN1CCN(Cc2ccc(Nc3ncc(F)c(-c4cc(F)c5nc(C)n(C(C)C)c5c4)n3)nc2)CC1
inactive: viability, T/C (compound 0.00316 µM) 105% [middle of 4 runs] | viability, T/C (compound 0.01 µM) 107% [middle of 4 runs] | viability, T/C (compound 0.316 µM) 121% and 132% (2×) and 151% | viability, T/C (compound 1 µM) 178% [middle of 4 runs]
> 1 µM: IC50 (curve of compound)
